From patent US8697727B2, “N-substituted-heterocycloalkyloxybenzamide compounds and methods of use” (Rigel Pharmaceuticals, Inc., priority 2006, dated 2014) come the findings set out here.

This test concerns AMPK. As to the kind of experiment: AMPK activation, enzyme-linked immunosorbent assay. The format is cell-based. In short, it runs like this: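 Each compound's EC50 for AMPK activation was the endpoint. In a cell-based assay, AMPK activity was read out as the relative concentration of phosphorylated acetyl-CoA carboxylase, a product of AMPK, measured by enzyme-linked immunosorbent assay. Values fell into the ranges less than 1 μM, 1-10 μM, 10-20 μM, 20-50 μM, 50-100 μM, and >100 μM.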

A value given as a limit tells only on which side of the number the result lay.

Turning to `O=C(NC1CCN(Cc2ccccc2)CC1)c1ccc(OC2CCN(c3ccc(C(F)(F)F)cc3)CC2)c(Cl)c1` [Compound 17, N-(1-benzylpiperidin-4-yl)-3-chloro-4-(1-(4-(trifluoromethyl)phenyl)piperidin-4-yloxy)benzamide], the EC50 – broadly, the concentration at which the effect is half-maximal – was below 1000 nM.

As for `O=C(NC1CCN(Cc2ccccc2)CC1)c1ccc(OC2CCN(C(=O)c3ccc(C(F)(F)F)cc3)CC2)c(Cl)c1` [Compound 18, N-(1-benzylpiperidin-4-yl)-3-chloro-4-(1-(4-(trifluoromethyl)benzoyl)piperidin-4-yloxy)benzamide], the EC50 is below 1000 nM. In the case of `O=C(NC1CCN(Cc2ccccc2)CC1)c1ccc(OC2CCN(Cc3ccc(F)cc3)CC2)c(Cl)c1` [Compound 19, N-(1-benzylpiperidin-4-yl)-3-chloro-4-(1-(4-fluorobenzyl)piperidin-4-yloxy)benzamide], the EC50 is below 1000 nM. For `CC(C)(C)c1ccc(CN2CCC(Oc3ccc(C(=O)NC4CCN(Cc5ccccc5)CC4)cc3F)CC2)cc1` [Compound 20, N-(1-benzylpiperidin-4-yl)-3-fluoro-4-(1-(4-tert-butylbenzyl)piperidin-4-yloxy)benzamide] the value was below 1000 nM. The compound `CC(c1ccccc1)N1CCC(Oc2ccc(C(=O)NC3CCN(Cc4ccccc4)CC3)cc2F)CC1` (stereo not shown) [Compound 21, N-(1-benzylpiperidin-4-yl)-3-fluoro-4-(1-(1-phenylethyl)piperidin-4-yloxy)benzamide] gave an EC50 of 1000 to 10000 nM. The compound `O=C(NC1CCN(Cc2ccccc2)CC1)c1ccc(OC2CCN(C(=O)c3ccc(F)cc3)CC2)c(Cl)c1` [Compound 22, N-(1-benzylpiperidin-4-yl)-3-chloro-4-(1-(4-fluorobenzoyl)piperidin-4-yloxy)benzamide] had an EC50 of 1000 to 10000 nM. The compound `O=C(NC1CCN(Cc2ccccc2)CC1)c1ccc(OC2CCN(c3ccc(C(F)(F)F)cc3)CC2)c(F)c1` [Compound 23, N-(1-benzylpiperidin-4-yl)-3-fluoro-4-(1-(4-(trifluoromethyl)phenyl)piperidin-4-yloxy)benzamide] displayed an EC50 below 1000 nM.

In the case of `O=C(NC1CCN(Cc2ccccc2)CC1)c1ccc(OC2CCN(Cc3ccccc3C(F)(F)F)CC2)c(Cl)c1` [Compound 24, N-(1-benzylpiperidin-4-yl)-3-chloro-4-(1-(2-(trifluoromethyl)benzyl)piperidin-4-yloxy)benzamide], the EC50 was in the range of 10000 to 20000 nM.

Turning to `O=C(NC1CCN(c2ccccc2)CC1)c1ccc(OC2CCN(c3ccc(C(F)(F)F)cc3)CC2)c(F)c1` [Compound 25, 3-fluoro-N-(1-phenylpiperidin-4-yl)-4-(1-(4-(trifluoromethyl)phenyl)piperidin-4-yloxy)benzamide], the concentration for a half-maximal effect (EC50) is above 100000 nM. Take `CC(C)(C)OC(=O)N1CCC(NC(=O)c2ccc(OC3CCN(c4ccc(C(F)(F)F)cc4)CC3)c(F)c2)CC1` [Compound 26, tert-butyl 4-(3-fluoro-4-(1-(4-(trifluoromethyl)phenyl)piperidin-4-yloxy)benzamido)piperidine-1-carboxylate]: the EC50 is below 1000 nM. Turning to `O=C(NC1CCN(Cc2ccc(F)cc2)CC1)c1ccc(OC2CCN(c3ccc(C(F)(F)F)cc3)CC2)c(F)c1` [Compound 27, 3-fluoro-N-(1-(4-fluorobenzyl)piperidin-4-yl)-4-(1-(4-(trifluoromethyl)phenyl)piperidin-4-yloxy)benzamide], the EC50 was below 1000 nM. Regarding `O=C(NC1CCN(Cc2ccncc2)CC1)c1ccc(OC2CCN(c3ccc(C(F)(F)F)cc3)CC2)c(F)c1` [Compound 28, 3-fluoro-N-(1-(pyridin-4-ylmethyl)piperidin-4-yl)-4-(1-(4-(trifluoromethyl)phenyl)piperidin-4-yloxy)benzamide], the concentration for a half-maximal effect (EC50) is below 1000 nM. Next, `O=C(NC1CCN(Cc2cccnc2)CC1)c1ccc(OC2CCN(c3ccc(C(F)(F)F)cc3)CC2)c(F)c1` [Compound 29, 3-fluoro-N-(1-(pyridin-3-ylmethyl)piperidin-4-yl)-4-(1-(4-(trifluoromethyl)phenyl)piperidin-4-yloxy)benzamide]: below 1000 nM.
